# US8716266B2, “Use of PKC-iota inhibitors for the treatment of glioma” (University of South Florida, priority 2011, dated 2014)
# Columns and labels:
# [1] = test system: Human glioblastoma cell line U-87 MG; assay: Human glioblastoma U-87 MG subcutaneous xenograft in athymic nude mice, tumor volume; format: in vivo, female athymic nude mice
# Text: The cell injection site was marked.
# [2] = Body weight and survival of xenografted mice under ICA-1 treatment
# Protocol: Briefly, nine female athymic nude mice, weighing 17 to 23 grams, were divided into 3 groups: Group 1, mice received human glioblastoma xenografts and were treated with saline controls (n=3); Group 2, mice received human glioblastoma xenografts and were treated with ICA-1 (80 mg/kg/day; 20 μM) immediately after glioma implantation (n=3); Group 3, mice received human glioblastoma xenografts and were treated with ICA-1 (80 mg/kg/day, 20 μM) when the tumor reached 100 mm^3 on day 5 post implantation (n=3).
# Human glioblastoma cell line U-87 MG, a commonly-studied human grade IV glioblastoma-astrocytoma, epithelial-like cell line, was injected subcutaneously into right flank (1×10^6 cells/flank in 0.1 ml PBS) of the mice. The cell injection site was marked. After glioblastoma implantation, ICA-1 (80 mg/kg/day; 20 μM) was subcutaneously injected, daily, into and around the tumor/cell injection area of Groups 2 and 3 mice; Group 1 mice was treated with vehicle. Tumor volume was calculated using the following formula: length×width×width×½.
# [3] = Group 2: ICA-1 80 mg/kg/day daily from implantation
structure (smiles),measurement,setting,value
"NC(=O)c1ncn(C2CC(COP(=O)(O)O)C(O)C2O)c1N (stereo not drawn) [ICA-1, 1H-imidazole-4-carboxamide, 5-amino-1-[2,3-dihydroxy-4-[(phosphonooxy)methyl]cyclopentyl]-[1R-(1α, 2β, 3β, 4α)]]",tumor growth,"[1]; Group 2: ICA-1 80 mg/kg/day (20 μM) s.c. daily into and around tumor area, started immediately after glioma implantation",prevented tumor growth
same,tumor growth,"[1]; Group 3: ICA-1 80 mg/kg/day (20 μM) s.c. daily, started when tumor reached 100 mm^3 on day 5 post implantation",prevented tumor growth
same,glioma volume,"[1]; Group 3: ICA-1 80 mg/kg/day, 4 days of treatment (day 5-day 9 post implantation)",reduced glioma volume
same,glioma size after the ICA-1 treatment was terminated,[1]; Group 3: after termination of treatment on day 9 post implantation,continued to reduce
same,glioma size relative to that of the control mice,"[1]; Group 3: end of study period, 8 days after termination of ICA-1 treatment (80 mg/kg/day, day 5-day 9)",53%
same,body weight,[2]; [3],lost significant weight
same,survival / lethality,[2]; [3],died seven days post ICA-1 treatment
same,body weight,[2]; Group 3: ICA-1 80 mg/kg/day for 4 days (day 5-day 9 post implantation),did not exhibit significant weight loss
